Data reported in ChEMBL document CHEMBL4371007, “Biased Ligands of G Protein-Coupled Receptors (GPCRs): Structure-Functional Selectivity Relationships (SFSRs) and Therapeutic Potential” (J Med Chem, 2018).

Key:
Cannabinoid receptor 2 [1] = molecular target: T1, Cannabinoid receptor 2 (Mus musculus, UniProt P47936); assay: Inverse agonist activity at mouse CB2 receptor expressed in HEK293 cells assessed as inhibition of forskolin-mediated cAMP accumulation after 5 mins by fluorescence assay; format: functional, cell-based
[2] = molecular target: Cannabinoid receptor 2 (Mus musculus) (UniProt P47936); assay: Inverse agonist activity at mouse CB2 receptor expressed in HEK293 cells assessed as inhibition of forskolin-mediated cAMP accumulation after 5 mins by fluorescence assay relative to control; format: functional, cell-based
Cannabinoid receptor 2 [3] = molecular target: T1, Cannabinoid receptor 2; assay: Inverse agonist activity at C-terminally prolink-tagged mouse CB2 receptor expressed in CHOK1 cells harboring beta-galactosidase enzyme fused beta-arrestin assessed as increase in beta-arrestin recruitment after 90 mins by chemiluminescent assay; format: cell-based
[4] = molecular target: Cannabinoid receptor 2 (Mus musculus) (UniProt P47936); assay: Inverse agonist activity at C-terminally prolink-tagged mouse CB2 receptor expressed in CHOK1 cells harboring beta-galactosidase enzyme fused beta-arrestin assessed as increase in beta-arrestin recruitment after 90 mins by chemiluminescent assay relative to control; format: cell-based
[5] = molecular target: Cannabinoid receptor 2 (Mus musculus) (UniProt P47936); assay: Ratio of EC50 for C-terminally prolink-tagged mouse CB2 receptor expressed in CHOK1 cells harboring beta-galactosidase enzyme fused beta-arrestin assessed as increase in beta-arrestin recruitment to EC50 for mouse CB2 receptor expressed in HEK293 cells assessed as inhibition of forskolin-mediated cAMP accumulation; format: functional, cell-based
D(2) dopamine receptor [6] = molecular target: T2, D(2) dopamine receptor (Homo sapiens, UniProt P14416); assay: Agonist activity at human dopamine D2long receptor (unknown origin) expressed in HEK293T cells co-expressing TEV fused-beta-Arrestin2 and GRK2 assessed as increase in beta-arrestin-2 recruitment at 1 uM after overnight incubation by Tango assay relative to control; format: cell-based
Adenosine receptor A3 [7] = molecular target: T3, Adenosine receptor A3 (Homo sapiens, UniProt P0DMS8); assay: Agonist activity at human adenosine A3 receptor expressed in FlpIn-CHO cells assessed as increase in ERK1/2 phosphorylation after 5 mins by alphascreen assay; format: cell-based
T3 sequence (P0DMS8 whole entry): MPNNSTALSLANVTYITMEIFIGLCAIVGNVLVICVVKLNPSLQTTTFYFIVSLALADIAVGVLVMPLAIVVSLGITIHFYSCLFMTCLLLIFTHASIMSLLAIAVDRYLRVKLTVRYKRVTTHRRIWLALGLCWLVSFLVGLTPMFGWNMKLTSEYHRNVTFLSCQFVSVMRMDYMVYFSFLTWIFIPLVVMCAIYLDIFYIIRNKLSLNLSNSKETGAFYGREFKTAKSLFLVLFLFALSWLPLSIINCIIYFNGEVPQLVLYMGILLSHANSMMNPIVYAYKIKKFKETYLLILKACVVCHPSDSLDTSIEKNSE

[8] = molecular target: T4, Adenosine receptor A3 (Homo sapiens) (UniProt P0DMS8); assay: Agonist activity at human adenosine A3 receptor expressed in FlpIn-CHO cells assessed as increase in ERK1/2 phosphorylation after 5 mins by alphascreen assay relative to control; format: cell-based
T4 sequence (whole entry): T3 sequence (P0DMS8 whole entry)

Adenosine receptor A3 [9] = molecular target: T3, Adenosine receptor A3; assay: Agonist activity at human adenosine A3 receptor expressed in FlpIn-CHO cells assessed as inhibition of forskolin-mediated cAMP accumulation preincubated for 10 mins followed by forskolin addition measured after 30 mins by alphascreen assay; format: functional, cell-based
[10] = molecular target: T4, Adenosine receptor A3 (Homo sapiens); assay: Agonist activity at human adenosine A3 receptor expressed in FlpIn-CHO cells assessed as inhibition of forskolin-mediated cAMP accumulation preincubated for 10 mins followed by forskolin addition measured after 30 mins by alphascreen assay relative to control; format: functional, cell-based
[11] = molecular target: T4, Adenosine receptor A3 (Homo sapiens); assay: Ratio of pEC50 EC50 for agonist activity at human adenosine A3 receptor expressed in FlpIn-CHO cells assessed as inhibition of forskolin-mediated cAMP accumulation to pEC50 for agonist activity at human adenosine A3 receptor expressed in FlpIn-CHO cells assessed as increase in ERK1/2 phosphorylation; format: functional, cell-based
[12] = molecular target: T4, Adenosine receptor A3 (Homo sapiens); assay: Agonist activity at adenosine A3 receptor (unknown origin) expressed in serum starved CHO cells assessed as increase in cell survival after 24 hrs by propidium iodide staining-based assay relative to control
[13] = molecular target: T4, Adenosine receptor A3 (Homo sapiens); assay: Ratio of pEC50 for agonist activity at human adenosine A3 receptor expressed in FlpIn-CHO cells assessed as inhibition of forskolin-mediated cAMP accumulation to pEC50 for agonist activity at adenosine A3 receptor (unknown origin) expressed in serum starved CHO cells assessed as increase in cell survival after 24 hrs by propidium iodide staining-based assay; format: functional
Histamine H4 receptor [14] = molecular target: T5, Histamine H4 receptor (Homo sapiens, UniProt Q9H3N8); assay: Agonist activity at histamine H4 receptor (unknown origin) expressed in human U2OS cells increase in beta-arrestin2 recruitment after 2 hrs by luminescence assay; format: cell-based
Histamine H4 receptor [15] = molecular target: T5, Histamine H4 receptor; assay: Agonist activity at histamine H4 receptor (unknown origin) expressed in human U2OS cells increase in beta-arrestin2 recruitment after 2 hrs by luminescence assay relative to control; format: cell-based
D(2) dopamine receptor [16] = molecular target: T2, D(2) dopamine receptor; assay: Agonist activity at dopamine D2long receptor (unknown origin) assessed as […] in cAMP accumulation relative to control; format: functional
D(2) dopamine receptor [17] = molecular target: T2, D(2) dopamine receptor; assay: Agonist activity at dopamine D2long receptor (unknown origin) assessed as […] in cAMP accumulation; format: functional
D(2) dopamine receptor [18] = molecular target: T2, D(2) dopamine receptor; assay: Agonist activity at dopamine D2long receptor (unknown origin) assessed as increase in beta-arrestin recruitment
D(2) dopamine receptor [19] = molecular target: T2, D(2) dopamine receptor; assay: Agonist activity at dopamine D2long receptor (unknown origin) assessed as increase in beta-arrestin recruitment relative to control
D(2) dopamine receptor [20] = molecular target: T2, D(2) dopamine receptor; assay: Antagonist activity at dopamine D2long receptor (unknown origin) assessed as inhibition of agonist-induced cAMP accumulation; format: functional
D(2) dopamine receptor [21] = molecular target: T2, D(2) dopamine receptor; assay: Antagonist activity at dopamine D2long receptor (unknown origin) assessed as inhibition of agonist-induced beta-arrestin recruitment
Histamine H4 receptor [22] = molecular target: T5, Histamine H4 receptor; assay: Agonist activity at histamine H4 receptor (unknown origin) expressed in HEK293T cells harboring CRE-luciferase after 6 hrs by luciferase reporter gene assay; format: functional, cell-based
Histamine H4 receptor [23] = molecular target: T5, Histamine H4 receptor; assay: Agonist activity at histamine H4 receptor (unknown origin) expressed in HEK293T cells harboring CRE-luciferase after 6 hrs by luciferase reporter gene assay relative to control; format: functional, cell-based
D(1A) dopamine receptor = D(1A) dopamine receptor (Homo sapiens, UniProt P21728); assay: Agonist activity at dopamine D1 receptor (unknown origin) assessed as increase in cAMP accumulation relative to control; format: functional
[24] = molecular target: T6, C-X-C chemokine receptor type 3 (Homo sapiens) (UniProt P49682); assay: Negative allosteric modulation activity at CXCR3 (unknown origin) expressed in HEK293 cell membranes assessed as increase in [35S]-GTPgammaS binding after 1 hr by scintillation counting assay; format: functional
T6 sequence (whole entry): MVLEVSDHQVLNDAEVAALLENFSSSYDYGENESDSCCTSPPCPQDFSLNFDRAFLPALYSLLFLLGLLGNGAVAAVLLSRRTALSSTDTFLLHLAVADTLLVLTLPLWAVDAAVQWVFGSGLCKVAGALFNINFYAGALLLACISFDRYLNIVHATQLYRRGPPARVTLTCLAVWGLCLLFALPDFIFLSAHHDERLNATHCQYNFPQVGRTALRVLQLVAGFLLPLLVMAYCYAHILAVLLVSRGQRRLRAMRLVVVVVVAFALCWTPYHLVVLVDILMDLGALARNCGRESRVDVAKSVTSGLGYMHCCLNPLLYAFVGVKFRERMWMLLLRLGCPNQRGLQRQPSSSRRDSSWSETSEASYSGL

[25] = molecular target: T6, C-X-C chemokine receptor type 3 (Homo sapiens); assay: Negative allosteric modulation activity at prolink-tagged CXCR3 (unknown origin) expressed in HEK293 cells harboring beta-galactosidase enzyme assessed as inhibition of CXCL11-induced beta-arrestin2 recruitment after 4 hrs by chemiluminescence assay; format: cell-based
[26] = molecular target: T6, C-X-C chemokine receptor type 3 (Homo sapiens); assay: Ratio of pKb for CXCR3 (unknown origin) expressed in HEK293 cell membranes assessed as increase in [35S]-GTPgammaS binding to pKb for prolink-tagged CXCR3 (unknown origin) expressed in HEK293 cells harboring beta-galactosidase enzyme assessed as inhibition of CXCL11-induced beta-arrestin2 recruitment; format: functional
D(2) dopamine receptor [27] = molecular target: T2, D(2) dopamine receptor; assay: Antagonist activity at dopamine D2long receptor (unknown origin) assessed as inhibition of agonist-induced beta-arrestin recruitment relative to control

T5 sequence (Q9H3N8 whole entry): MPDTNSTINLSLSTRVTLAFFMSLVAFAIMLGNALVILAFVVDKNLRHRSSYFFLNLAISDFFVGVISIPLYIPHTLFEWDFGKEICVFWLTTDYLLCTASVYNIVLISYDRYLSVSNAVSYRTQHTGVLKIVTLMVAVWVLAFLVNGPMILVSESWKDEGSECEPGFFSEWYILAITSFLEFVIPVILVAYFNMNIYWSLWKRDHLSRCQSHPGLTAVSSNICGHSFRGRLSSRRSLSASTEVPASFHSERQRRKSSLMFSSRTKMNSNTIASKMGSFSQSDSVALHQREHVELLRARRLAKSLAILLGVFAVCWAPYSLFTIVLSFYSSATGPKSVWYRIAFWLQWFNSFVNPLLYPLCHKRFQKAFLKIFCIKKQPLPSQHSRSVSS
Cannabinoid receptor 2 (Mus musculus), sequence (P47936 whole entry, the tested form may be a part): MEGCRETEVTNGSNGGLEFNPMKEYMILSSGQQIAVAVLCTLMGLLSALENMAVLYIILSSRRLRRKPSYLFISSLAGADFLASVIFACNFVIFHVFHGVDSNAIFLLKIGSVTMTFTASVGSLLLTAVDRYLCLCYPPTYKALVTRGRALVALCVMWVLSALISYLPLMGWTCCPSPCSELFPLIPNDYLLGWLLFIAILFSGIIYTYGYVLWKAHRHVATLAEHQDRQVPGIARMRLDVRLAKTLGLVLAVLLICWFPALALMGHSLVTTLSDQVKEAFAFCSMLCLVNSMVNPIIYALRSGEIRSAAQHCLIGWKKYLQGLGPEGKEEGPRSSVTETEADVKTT
T1 sequence (P47936 whole entry): as the sequence (P47936 whole entry, the tested form may be a part) above
T2 sequence (P14416 whole entry, the tested form may be a part): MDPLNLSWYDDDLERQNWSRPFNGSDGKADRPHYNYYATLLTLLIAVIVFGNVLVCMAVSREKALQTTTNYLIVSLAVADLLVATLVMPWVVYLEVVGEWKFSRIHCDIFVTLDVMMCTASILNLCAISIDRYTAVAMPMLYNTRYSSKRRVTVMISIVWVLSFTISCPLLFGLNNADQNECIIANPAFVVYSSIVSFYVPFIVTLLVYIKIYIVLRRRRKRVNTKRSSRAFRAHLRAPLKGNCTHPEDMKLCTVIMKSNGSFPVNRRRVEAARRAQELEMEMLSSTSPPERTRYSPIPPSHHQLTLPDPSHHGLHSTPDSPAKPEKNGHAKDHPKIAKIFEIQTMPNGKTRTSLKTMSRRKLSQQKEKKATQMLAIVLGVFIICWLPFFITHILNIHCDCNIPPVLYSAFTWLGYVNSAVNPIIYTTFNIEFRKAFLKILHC
D(1A) dopamine receptor, sequence (P21728 whole entry): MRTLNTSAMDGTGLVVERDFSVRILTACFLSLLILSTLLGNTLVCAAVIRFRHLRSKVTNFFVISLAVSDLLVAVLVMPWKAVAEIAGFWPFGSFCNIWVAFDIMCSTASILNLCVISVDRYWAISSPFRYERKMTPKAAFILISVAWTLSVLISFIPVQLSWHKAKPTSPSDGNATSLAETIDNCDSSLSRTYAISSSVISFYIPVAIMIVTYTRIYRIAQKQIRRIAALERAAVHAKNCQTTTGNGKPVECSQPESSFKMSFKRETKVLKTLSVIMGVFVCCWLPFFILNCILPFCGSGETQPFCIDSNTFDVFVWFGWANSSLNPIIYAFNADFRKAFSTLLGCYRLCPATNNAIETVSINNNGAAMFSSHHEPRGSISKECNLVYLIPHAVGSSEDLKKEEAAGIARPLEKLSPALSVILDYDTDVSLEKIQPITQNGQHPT

Structure (SMILES): O=C(c1cn(CCCCCF)c2ccccc12)C12CC3CC(CC(C3)C1)C2
- EC50 (Cannabinoid receptor 2 [1]): 52 nM
- Emax [2]: 31%
- EC50 (Cannabinoid receptor 2 [3]): 1.5 nM
- Emax [4]: 62%
- Ratio EC50 [5]: 0.2

Structure (SMILES): COc1ccc(C(=O)c2c(C)n(CCN3CCOCC3)c3cc(I)ccc23)cc1
- EC50 (Cannabinoid receptor 2 [1]): 25 nM
- Emax [2]: -19%
- EC50 (Cannabinoid receptor 2 [3]): 9 nM
- Emax [4]: 43%

Structure (SMILES): Cn1ccc2c(N3CCN(CCCCOc4ccc5c(c4)NC(=O)CC5)CC3)cccc21
- Emax (D(2) dopamine receptor [6]): 36%

Structure (SMILES): CNC(=O)[C@@]12C[C@@H]1[C@@H](n1cnc3c(NCc4cccc(Cl)c4)nc(C#Cc4ccc(-c5ccccc5)cc4)nc31)[C@H](O)[C@@H]2O
- EC50 (Adenosine receptor A3 [7]): 25.1 nM
- Emax [8]: 95%
- EC50 (Adenosine receptor A3 [9]): 7.94 nM
- Emax [10]: 59%
- Ratio EC50 [11]: 3.2
- Emax [12]: 85%
- Ratio [13]: 224

Structure (SMILES): N=C(NCc1ccccc1Cl)SCCCc1c[nH]cn1
- EC50 (Histamine H4 receptor [14]): 15.8 nM
- Emax (Histamine H4 receptor [15]): 31%

Structure (SMILES): CC1(Oc2ccc(Cl)cc2)CCN(CCOc2ccccc2)CC1
- Emax (D(2) dopamine receptor [16]): 100%
- EC50 (D(2) dopamine receptor [17]): 10 nM
- EC50 (D(2) dopamine receptor [18]): 120 nM
- Emax (D(2) dopamine receptor [19]): 75%
- EC50 (D(2) dopamine receptor [20]): > 30 µM
- EC50 (D(2) dopamine receptor [21]): > 30000 nM

Structure (SMILES): CNC(=O)[C@@]12C[C@@H]1[C@@H](n1cnc3c(N(C)c4cccc(Cl)c4)nc(Cl)nc31)[C@H](O)[C@@H]2O
- Emax [8]: 94%
- Emax [10]: 70%
- Ratio EC50 [11]: 1.4
- Emax [12]: 85%
- Ratio [13]: 3.1

Structure (SMILES): CN1CCN(c2cc(NCc3ccccc3)nc(N)n2)CC1
- EC50 (Histamine H4 receptor [22]): 12.6 nM
- Emax (Histamine H4 receptor [23]): 79%
- EC50 (Histamine H4 receptor [14]): 63.1 nM
- Emax (Histamine H4 receptor [15]): 27%

Structure (SMILES): Cc1cc(Oc2nccc3occc23)ccc1-n1c(C)nc2cnccc21
- Emax (D(1A) dopamine receptor): 78%

Structure (SMILES): CCOc1ccc(-n2c(C(C)N(Cc3ccc(F)c(B(O)O)c3)C(=O)Cc3ccc(F)c(C(F)(F)F)c3)nc3ncccc3c2=O)cc1 (centres undefined)
- pKb [24]: 6.09
- pKb [25]: 7.46
- Ratio [26]: 24

Structure (SMILES): CNC(=O)[C@@]12C[C@@H]1[C@@H](n1cnc3c(NCc4cccc(Cl)c4)nc(C#Cc4ccccc4)nc31)[C@H](O)[C@@H]2O
- EC50 (Adenosine receptor A3 [7]): 0.501 nM
- Emax [8]: 88%
- EC50 (Adenosine receptor A3 [9]): 0.794 nM
- Emax [10]: 78%
- Ratio EC50 [11]: 2.1
- Emax [12]: 83%
- Ratio [13]: 8.1

Structure (SMILES): CCCCCc1cc(O)c2c(c1)OC(C)(C)[C@@H]1CCC(C)=C[C@@H]21 [DRONABINOL]
- EC50 (Cannabinoid receptor 2 [1]): 7.3 nM
- Emax [2]: 52%
- Emax [4]: 3%
- Ratio EC50 [5]: 33.1

Structure (SMILES): CC1(Oc2ccc(Cl)cc2)CCN(CCOc2ccccc2)C1 (centres undefined)
- Emax (D(2) dopamine receptor [16]): 75%
- EC50 (D(2) dopamine receptor [17]): 120 nM
- EC50 (D(2) dopamine receptor [18]): > 30000 nM
- Emax (D(2) dopamine receptor [19]): 15%
- EC50 (D(2) dopamine receptor [20]): > 30 µM
- EC50 (D(2) dopamine receptor [21]): 2140 nM
- Emax (D(2) dopamine receptor [27]): 80%

Structure (SMILES): c1nc(CCn2cc(CC3CCCCC3)nn2)c[nH]1
- EC50 (Histamine H4 receptor [22]): 126 nM
- Emax (Histamine H4 receptor [23]): 82%
- EC50 (Histamine H4 receptor [14]): 1000 nM
- Emax (Histamine H4 receptor [15]): 17%

Structure (SMILES): CCCCCCC(C)(C)c1cc(OC)c([C@@H]2C=C(CO)[C@H]3C[C@@H]2C3(C)C)c(OC)c1
- EC50 (Cannabinoid receptor 2 [1]): 30 nM
- Emax [2]: 60%
- Emax [4]: 3%
- Ratio EC50 [5]: 39.8
